Patent publication US20210045385A1, “PYRIDAZINONE-SUBSTITUTED KETOXIMES AS HERBICIDES” (FMC Corporation, priority 2018, published 2021)

How the values were obtained:
Assay type in all cases: in vivo
[1] = test system: Italian ryegrass (Lolium multiflorum); assay: Test A preemergence, visual plant response rating; conditions: for Ryegrass, Italian plant response rating (0 to 100 scale): approx. 10 days
Outline: (§1)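 Compared with untreated controls, treated plants received a visual injury score on a 0–100 scale around 10 days after application. The compound, in a non-phytotoxic solvent with surfactant, was given as a preemergence soil spray or postemergence at the one- to two-leaf stage.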

[2] = test system: foxtail, green (green foxtail, Setaria viridis); assay: Test A preemergence, visual plant response rating; conditions: for Foxtail, Green plant response rating (0 to 100 scale): approx. 10 days
Outline: as §1

[3] = test system: kochia (Kochia scoparia); assay: Test A preemergence, visual plant response rating; conditions: for Kochia plant response rating (0 to 100 scale): approx. 10 days
Outline: as §1

[4] = test system: ragweed (common ragweed, Ambrosia elatior); assay: Test A preemergence, visual plant response rating; conditions: for Ragweed plant response rating (0 to 100 scale): approx. 10 days
Outline: as §1

[5] = test system: barnyardgrass (Echinochloa crus-galli); assay: Test A preemergence, visual plant response rating; conditions: for Barnyardgrass plant response rating (0 to 100 scale): approx. 10 days
Outline: as §1

[6] = test system: pigweed (Amaranthus retroflexus); assay: Test A preemergence, visual plant response rating; conditions: for Pigweed plant response rating (0 to 100 scale): approx. 10 days
Outline: as §1

[7] = test system: sedge, umbrella (small-flower umbrella sedge, Cyperus difformis); assay: Test B flooded paddy test, visual plant response rating; conditions: 250 g ai/ha, Flood, applied to paddy water, 2-leaf stage, evaluated after 13 to 15 days
Outline: (§2)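 Test pots are flooded 3 cm above the soil at treatment, and the test substance is introduced into this standing water. After keeping the flood level and growing plants, treated at the 2-leaf stage, for 13 to 15 days under glass, injury is assessed visually versus controls.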

[8] = test system: barnyardgrass (Echinochloa crus-galli); assay: as above; conditions: 250 g ai/ha, Flood, applied to paddy water, 2-leaf stage, evaluated after 13 to 15 days
Outline: as §2

[9] = test system: rice (Oryza sativa); assay: as above; conditions: 250 g ai/ha, Flood, applied to paddy water, 2-leaf stage, evaluated after 13 to 15 days
Outline: as §2

[10] = test system: ducksalad (Heteranhera limosa); assay: as above; conditions: 250 g ai/ha, Flood, applied to paddy water, 2-leaf stage, evaluated after 13 to 15 days
Outline: as §2

[11] = test system: galium (catchweed bedstraw, Galium aparine); assay: Test A postemergence, visual plant response rating; conditions: for Galium plant response rating (0 to 100 scale): 500 g ai/ha, postemergence, 0 is no effect, 100 is complete control; for Galium plant response rating: Postemergence, 125 g ai/ha, 0 to 100 scale (0 no effect, 100 complete control)
Outline: as §1

[12] = test system: Italian ryegrass (Lolium multiflorum); assay: Test A postemergence, visual plant response rating
Outline: as §1

[13] = test system: foxtail, green (green foxtail, Setaria viridis); assay: Test A postemergence, visual plant response rating; conditions: for Foxtail, Green plant response rating (0 to 100 scale): 500 g ai/ha, postemergence, 0 is no effect, 100 is complete control; for Foxtail, Green plant response rating: Postemergence, 125 g ai/ha, 0 to 100 scale (0 no effect, 100 complete control)
Outline: as §1

[14] = test system: kochia (Kochia scoparia); assay: Test A postemergence, visual plant response rating; conditions: for Kochia plant response rating (0 to 100 scale): 500 g ai/ha, postemergence, 0 is no effect, 100 is complete control; for Kochia plant response rating: Postemergence, 125 g ai/ha, 0 to 100 scale (0 no effect, 100 complete control)
Outline: as §1

[15] = test system: ragweed (common ragweed, Ambrosia elatior); assay: Test A postemergence, visual plant response rating; conditions: for Ragweed plant response rating (0 to 100 scale): 500 g ai/ha, postemergence, 0 is no effect, 100 is complete control; for Ragweed plant response rating: Postemergence, 125 g ai/ha, 0 to 100 scale (0 no effect, 100 complete control)
Outline: as §1

[16] = test system: barnyardgrass (Echinochloa crus-galli); assay: Test A postemergence, visual plant response rating; conditions: for Barnyardgrass plant response rating (0 to 100 scale): 500 g ai/ha, postemergence, 0 is no effect, 100 is complete control; for Barnyardgrass plant response rating: Postemergence, 125 g ai/ha, 0 to 100 scale (0 no effect, 100 complete control)
Outline: as §1

[17] = test system: blackgrass (Alopecurus myosuroides); assay: Test A postemergence, visual plant response rating; conditions: for Blackgrass plant response rating (0 to 100 scale): 500 g ai/ha, postemergence, 0 is no effect, 100 is complete control; for Blackgrass plant response rating: Postemergence, 125 g ai/ha, 0 to 100 scale (0 no effect, 100 complete control)
Outline: as §1

[18] = test system: wheat (Triticum aestivum); assay: Test A postemergence, visual plant response rating; conditions: for Wheat plant response rating: 0 to 100 scale (0 no effect, 100 complete control)
Outline: as §1

[19] = test system: corn (Zea mays); assay: Test A postemergence, visual plant response rating; conditions: for Corn plant response rating (0 to 100 scale): 500 g ai/ha, postemergence, 0 is no effect, 100 is complete control; for Corn plant response rating: Postemergence, 125 g ai/ha, 0 to 100 scale (0 no effect, 100 complete control)
Outline: as §1

[20] = test system: pigweed (Amaranthus retroflexus); assay: Test A postemergence, visual plant response rating; conditions: for Pigweed plant response rating (0 to 100 scale): 500 g ai/ha, postemergence, 0 is no effect, 100 is complete control; for Pigweed plant response rating: Postemergence, 125 g ai/ha, 0 to 100 scale (0 no effect, 100 complete control)
Outline: as §1

[21] = 125 g ai/ha, preemergence, 0 to 100 scale, 0 no effect, 100 complete control
[22] = 500 g ai/ha, postemergence, 0 is no effect, 100 is complete control

SMILES	Ryegrass, Italian plant response rating (0 to 100 scale) ([1]; 500 g ai/ha Preemergence)	Foxtail, Green plant response rating (0 to 100 scale) ([2]; 500 g ai/ha Preemergence)	Kochia plant response rating (0 to 100 scale) ([3]; 500 g ai/ha Preemergence)	Ragweed plant response rating (0 to 100 scale) ([4]; 500 g ai/ha Preemergence)	Barnyardgrass plant response rating (0 to 100 scale) ([5]; 500 g ai/ha Preemergence)	Pigweed plant response rating (0 to 100 scale) ([6]; 500 g ai/ha Preemergence)	Plant response rating, Sedge, Umbrella (0 to 100 scale, 0 is no effect, 100 is complete control) [7]	Plant response rating, Barnyardgrass (0 to 100 scale, 0 is no effect, 100 is complete control) [8]	Plant response rating, Rice (0 to 100 scale, 0 is no effect, 100 is complete control) [9]	Plant response rating, Ducksalad (0 to 100 scale, 0 is no effect, 100 is complete control) [10]	Galium plant response rating (0 to 100 scale) [11]	Galium plant response rating [11]	Ryegrass, Italian plant response rating (0 to 100 scale) [12, 22]	Foxtail, Green plant response rating (0 to 100 scale) [13]	Foxtail, Green plant response rating [13]	Kochia plant response rating (0 to 100 scale) [14]	Kochia plant response rating [14]	Ragweed plant response rating (0 to 100 scale) [15]	Ragweed plant response rating [15]	Barnyardgrass plant response rating (0 to 100 scale) [16]	also measured
CON=C(c1cccc(Cl)c1)c1c(O)c(C)n[nH]c1=O (mixture of isomers) [Compound 143]	50	80	10	0	30	0	0	0	0	0	0	0	60	40	20	20	0	0	0	40	Ryegrass, Italian plant response rating [1, 21]: 20; Foxtail, Green plant response rating [2, 21]: 30; Kochia plant response rating [3, 21]: 0; Ragweed plant response rating [4, 21]: 0; Barnyardgrass plant response rating [5, 21]: 0; Pigweed plant response rating [6, 21]: 0; Ryegrass, Italian plant response rating (0 to 100 scale) ([12]; Postemergence, rate not given, approx. 10 days): 20; Barnyardgrass plant response rating [16]: 10; Blackgrass plant response rating (0 to 100 scale) [17]: 40; Blackgrass plant response rating [17]: 10; Wheat plant response rating ([18]; Postemergence, 500 g ai/ha): 20; Wheat plant response rating (0 to 100 scale) ([18]; Postemergence, approx. 10 days): 0; Corn plant response rating (0 to 100 scale) [19]: 20; Corn plant response rating [19]: 0; Pigweed plant response rating (0 to 100 scale) [20]: 20; Pigweed plant response rating [20]: 0
CCO/N=C(/c1cccc(C)c1C)c1c(O)c(C)nn(C)c1=O [Compound 24]	50	60	0	60	10	40	0	0	0	0	60	50	40	20	0	20	0	60	30	30	Ryegrass, Italian plant response rating (0 to 100 scale) ([1]; 125 g ai/ha Preemergence): 10; Foxtail, Green plant response rating (0 to 100 scale) ([2]; 125 g ai/ha Preemergence): 20; Kochia plant response rating (0 to 100 scale) ([3]; 125 g ai/ha Preemergence): 0; Ragweed plant response rating (0 to 100 scale) ([4]; 125 g ai/ha Preemergence): 30; Barnyardgrass plant response rating (0 to 100 scale) ([5]; 125 g ai/ha Preemergence): 0; Pigweed plant response rating (0 to 100 scale) ([6]; 125 g ai/ha Preemergence): 20; Ryegrass, Italian plant response rating ([12]; Postemergence, 125 g ai/ha, 0 to 100 scale (0 no effect, 100 complete control)): 10; Barnyardgrass plant response rating [16]: 0; Blackgrass plant response rating (0 to 100 scale) [17]: 40; Blackgrass plant response rating [17]: 10; Wheat plant response rating (0 to 100 scale) [18, 22]: 0; Wheat plant response rating ([18]; Postemergence, 125 g ai/ha): 0; Corn plant response rating (0 to 100 scale) [19]: 0; Corn plant response rating [19]: 0; Pigweed plant response rating (0 to 100 scale) [20]: 60; Pigweed plant response rating [20]: 30
